Measurements published in US12121521B2, “Uses of salt-inducible kinase (SIK) inhibitors for treating osteoporosis” (The General Hospital Corporation, priority 2016, dated 2024).
“Also recorded” adds a separate entry of the source.

Columns and labels:
[1] = Half-life in murine hepatic microsomes; type: in vitro ADME; settings: compared to YKL-04-114 and HG-9-91-01; FIG. 16
Procedure: FIG. 16: The half-life (in minute) of the indicated compound was measured in murine hepatic microsomes.

C57B/6 mice = test: Acute YKL-05-093 administration: bone gene expression and sclerostin immunohistochemistry; type: in vivo, mouse; settings: 2 hours
Procedure: FIGS. 7A to 7I: Effects of YKL-05-093 administration on bone gene expression in vivo. (FIGS. 7A and 7B) 8 week old C57B/6 mice (n=4/group) were treated with the indicated dose of YKL-05-093 via intraperitoneal injection. 2 hours later, bone RNA was isolated and transcript abundance was measured by RT-qPCR. # indicates p<0.05 versus vehicle, and * indicates p<0.01 versus vehicle by Student's unpaired 2 tailed t-test. (FIG. 7C) Left: sclerostin immunohistochemistry was performed 2 hours after intraperitoneal injection with either vehicle or YKL-05-093 (20 μmol/kg). Right: quantification of sclerostin-positive cortical osteocytes, n=4 mice per treatment group, * indicated p<0.01 versus vehicle. (FIGS. 7D to 7I) Genes regulated by PTH and YKL-05-093 in vitro are also regulated by YKL-05-093 in vivo. Mice were treated with YKL-05-093 (20 μmol/kg) and bone RNA collected 2 hours later as in FIG. 7A. * indicates p<0.05 versus vehicle. In FIGS. 7A, 7B, and 7D to 7I, “umol” denotes μmol. In FIGS. 7D to 7I, each of the right bars corresponds to YKL-05-093.
All animals were housed in the Center for Comparative Medicine at the Massachusetts General Hospital, and all experiments were approved by the hospital's Subcommittee on Research Animal Care. HDAC5-null mice (70) and HDAC4 f/f mice (71) were generously provided by Dr. Eric Olson (University of Texas Southwestern Medical Center, Dallas, TX) and were backcrossed to C57B/6 mice for at least 6 generations. DMP1-Cre mice (27) were generously provided by Dr. Jian (Jerry) Feng (Texas A&M University, Baylor College of Dentistry, Dallas, TX). “DKO” HDAC4/5 mice were of the following genotype: HDAC4f/f; HDAC5−/−; DMP1-Cre. SIK2 f/f mice were as described (40), and were bred to DMP1-Cre animals to generate SIK2^OcyKO mice. ES cells carrying the targeted SOST allele Sost^tm1(KOMP)Vleg, in which the SOST coding sequence has been replaced by LacZ and floxed Neo cassette, were obtained from the Knockout Mouse Project (KOMP) Repository. Clone VG10069-BE8 was injected into blastocysts, and the resulting SOST+/− mice were crossed to HDAC5 mutant animals to generate compound heterozygous mice. In all instances, skeletal phenotypes were evaluated in 8 week-old sex-matched littermates. For acute effects of PTH on bone gene expression, animals were treated with PTH (1-34, 300 μg/kg, subcutaneous administration) and then sacrificed 90 minutes later. For acute effects of YKL-05-093 on bone gene expression, animals were treated with the indicated doses of compound (dissolved in PBS+25 mM HCl) or solvent via intraperitoneal injections, and sacrificed 2 hours later. […]

Ocy454 cells = test: Immunoblotting of Ocy454 cell lysates (HDAC4/5, CRTC2, SIK2 phosphorylation and localisation); type: cell-based, mouse; settings: 10 uM, 90 minutes, compared to DMSO control; FIGS. 17 to 19
Procedure: The Ocy454 osteocyte cell line was treated for 90 minutes with the indicated compound at 10 uM dose (FIG. 17). Phospho-HDAC4 S246 levels were monitored by immunoblotting (top band) compared to DMSO control.
For all experiments, a single cell subclone of Ocy454 cells (17, 18) was used. Cells were passages in alpha-MEM supplemented with 10% heat-inactivated fetal bovine serum and 1% antibiotics (penicillin/streptomycin, Fungizone) at 33° C. with 5% CO2. Cells were plated at 50,000 cells/ml and allowed to reach confluency at 33° C. (typically in 2-3 days). At this point, cells were transferred to 37° C. for subsequent analysis. For immunoblotting, cells were always analyzed after culture at 37° C. for 7 days. For gene expression analysis, cells were analyzed after culture at 37° C. for 14 days. Mycoplasma contamination was ruled out by PCR. Cells were routinely assayed for SOST expression at 37° C. and examined for osteocytic morphology. […]

Structure (SMILES): COc1ccc(N2C(=O)N(c3c(C)cccc3C)Cc3cnc(Nc4ccc(C5CCN(C)CC5)c(OC)c4)nc32)c(OC)c1 [YKL-05-093]
- half-life / stability in murine hepatic microsomes [1]: improved half-life; also recorded: somewhat improved stability
- bone expression of genes co-regulated by PTH and YKL-05-093 in vitro (C57B/6 mice; 20 μmol/kg): significant regulation of VDR, WNT4, NR4A2, NUAK1, PDGFA, and CD200 expression
- sclerostin protein levels by immunohistochemistry (C57B/6 mice; 20 μmol/kg): reductions in sclerostin protein levels
- RANKL in osteocyte-enriched bone RNA (C57B/6 mice; intraperitoneal): RANKL up-regulation
- SOST in osteocyte-enriched bone RNA (C57B/6 mice; intraperitoneal): dose-dependent SOST suppression
- Phospho-HDAC4 S246 levels (Ocy454 cells): showed clear activity with respect to reducing HDAC4 S246 levels; also recorded: most reproducibly led to reduced HDAC4 S246 phosphorylation
